The target of the assay is T1, KNa1.1 WT/Y796H (Homo sapiens, UniProt Q5JUK3, Y796H).
T1 construct: gene KCNT1; full-length WT KNa1.1 and Y796H KNa1.1 subunits joined by self-cleaving T2A linker in pcDNA6
T1 sequence (Q5JUK3 1-1230): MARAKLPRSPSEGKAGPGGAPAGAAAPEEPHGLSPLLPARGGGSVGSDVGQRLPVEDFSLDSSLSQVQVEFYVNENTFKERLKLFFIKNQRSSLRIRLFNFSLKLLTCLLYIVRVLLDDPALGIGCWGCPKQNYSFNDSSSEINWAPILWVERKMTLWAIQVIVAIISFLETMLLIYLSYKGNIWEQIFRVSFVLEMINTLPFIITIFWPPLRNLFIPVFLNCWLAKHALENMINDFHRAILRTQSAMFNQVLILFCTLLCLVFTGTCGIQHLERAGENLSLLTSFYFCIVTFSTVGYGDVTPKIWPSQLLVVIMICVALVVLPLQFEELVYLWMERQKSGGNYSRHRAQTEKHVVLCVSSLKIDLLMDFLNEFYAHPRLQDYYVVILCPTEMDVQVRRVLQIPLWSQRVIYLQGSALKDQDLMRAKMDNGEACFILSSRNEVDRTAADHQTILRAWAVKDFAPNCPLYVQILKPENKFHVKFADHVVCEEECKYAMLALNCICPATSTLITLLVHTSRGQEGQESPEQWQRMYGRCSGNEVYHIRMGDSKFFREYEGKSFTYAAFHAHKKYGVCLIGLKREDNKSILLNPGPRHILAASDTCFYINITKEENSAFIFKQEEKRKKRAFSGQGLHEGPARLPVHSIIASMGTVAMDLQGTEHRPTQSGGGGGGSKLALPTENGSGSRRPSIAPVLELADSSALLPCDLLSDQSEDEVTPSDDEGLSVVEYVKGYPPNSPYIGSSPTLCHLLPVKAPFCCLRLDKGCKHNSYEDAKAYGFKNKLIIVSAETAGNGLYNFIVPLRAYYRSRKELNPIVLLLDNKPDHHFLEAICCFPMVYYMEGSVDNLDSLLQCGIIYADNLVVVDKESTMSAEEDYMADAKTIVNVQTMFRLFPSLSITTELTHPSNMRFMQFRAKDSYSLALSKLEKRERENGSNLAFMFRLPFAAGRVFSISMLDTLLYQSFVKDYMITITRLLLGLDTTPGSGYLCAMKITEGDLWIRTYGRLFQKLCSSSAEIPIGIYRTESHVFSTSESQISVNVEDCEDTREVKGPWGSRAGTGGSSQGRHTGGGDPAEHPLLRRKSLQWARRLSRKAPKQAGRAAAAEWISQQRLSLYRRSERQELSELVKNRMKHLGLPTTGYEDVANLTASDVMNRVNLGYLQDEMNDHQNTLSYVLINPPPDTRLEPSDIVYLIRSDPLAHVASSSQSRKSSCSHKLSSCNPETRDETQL
T1 sequence (Q5JUK3 1-1230 Y796H): T1 sequence (Q5JUK3 1-1230) with Y796H
Description: thallium flux (Thallos AM), HEK293. The class given is cell-based. An excerpt:
thallium flux (Thallos AM), HEK293 on KNa1.1 WT/Y796H

The structures appear in SMILES notation. Substitutions are numbered along the chain they refer to.

As usually defined, the IC50 is the concentration needed to halve the response being measured. Higher therefore signals weaker potency. As for `CC(c1ccccc1)N1CCCN(c2cccc(NC(=O)Nc3cccc(Cl)c3)c2)C1=O` (stereo not shown) [compound 1, Cpd1], the IC50 is 4.7 µM.

These data come from doi:10.1101/2025.09.30.679465v1, “Large-Scale Structure-Based Virtual Screening Identifies Diverse KNa1.1 (KCNT1) Potassium Channel Inhibitors” (biorxiv, 2025).
